The values below come from paper PMC5096734 (Chembiochem : a European journal of chemical biology, 2014).

Holding throughout (experiment): fluorogenic hydrolysis, Michaelis-Menten
The test system of one test is C. antarctica lipase. Format: biochemical, Moesziomyces antarcticus. As to conditions: enzyme 10 μg/mL.
In another test the test system is B. subtilis esterase. It is filed as biochemical, Bacillus subtilis. As to conditions: enzyme 0.5 μg/mL.
The test system of another test is PLE. Format: biochemical, Sus scrofa.
Another test deals with T1, M. miehei lipase (Rhizomucor miehei, UniProt P19515).
T1 sequence (P19515 95-363): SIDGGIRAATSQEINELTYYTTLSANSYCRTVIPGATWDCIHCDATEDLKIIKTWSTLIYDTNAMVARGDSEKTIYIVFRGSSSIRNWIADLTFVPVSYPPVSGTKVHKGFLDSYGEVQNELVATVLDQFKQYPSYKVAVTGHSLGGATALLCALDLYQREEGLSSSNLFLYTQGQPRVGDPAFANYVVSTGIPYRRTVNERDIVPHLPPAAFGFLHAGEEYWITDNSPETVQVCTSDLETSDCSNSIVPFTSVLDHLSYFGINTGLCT
It is filed as biochemical. As to conditions: enzyme 10 μg/mL.

As for `CC(=O)OCOc1ccc2nc3ccc(=O)cc-3oc2c1` [Res-AME], the Km was found to be 6.8 ± 0.4 µM in the test on C. antarctica lipase, 19 ± 2 µM in the test with B. subtilis esterase and 4.9 ± 0.7 µM with PLE (enzyme 0.050 μg/mL).
Take DDAO-AME 1: the Km in the test with C. antarctica lipase amounted to 9.5 ± 1.1 µM; on M. miehei lipase, 4.4 ± 0.7 µM; in the test on B. subtilis esterase, 6.7 ± 0.5 µM; in the test on PLE (enzyme 0.5 μg/mL), 7.5 ± 0.8 µM.
